The values that follow come from publication PMC2606880 (Diabetes, 2009).

For data set [1] the following is noted: cited from earlier work.
The subject of data set [2] is conscious dogs. Nature of the data set: Tolerability of oral vildagliptin. Format: in vivo, dog. The following applies: vildagliptin 1 mg/kg by stomach gavage; all animals.
Data set [3] deals with conscious dogs. The class given is in vivo, dog. The settings on record: for Net hepatic alanine uptake / Net hepatic glycerol uptake / Plasma free fatty acid level: vildagliptin 1 mg/kg oral, mean ± SE, n = 6.
Data set [4] has as its system conscious dogs. Format: in vivo, dog. The following applies: vildagliptin-treated group.
In data set [5] the test system is type 2 diabetic patients. The settings on record: 4 weeks of treatment; cited from earlier work.
The subject of data set [6] is conscious dogs. Nature of the data set: Plasma pancreatic hormone levels. The following applies: vildagliptin-treated group. Format: in vivo, dog.
The mark [7] stands for this setting: basal period, mean ± SEM, n = 6.

Read-outs that look alike come from different tables or passages of the source.

By clearance is commonly meant a measure of how efficiently the substance is removed, as volume per time. Low values mean a low capacity for elimination, high ones a high capacity for elimination. Consider `CC[C@H](C)[C@H](NC(=O)[C@H](Cc1ccccc1)NC(=O)[C@H](CCC(=O)O)NC(=O)[C@H](CCCCN)NC(=O)[C@H](C)NC(=O)[C@H](C)NC(=O)[C@H](CCC(N)=O)NC(=O)CNC(=O)[C@H](CCC(=O)O)NC(=O)[C@H](CC(C)C)NC(=O)[C@H](Cc1ccc(O)cc1)NC(=O)[C@H](CO)NC(=O)[C@H](CO)NC(=O)[C@@H](NC(=O)[C@H](CC(=O)O)NC(=O)[C@H](CO)NC(=O)[C@@H](NC(=O)[C@H](Cc1ccccc1)NC(=O)[C@@H](NC(=O)CNC(=O)[C@H](CCC(=O)O)NC(=O)[C@H](C)NC(=O)[C@@H](N)Cc1c[nH]cn1)[C@@H](C)O)[C@@H](C)O)C(C)C)C(=O)N[C@@H](C)C(=O)N[C@@H](Cc1c[nH]c2ccccc12)C(=O)N[C@@H](CC(C)C)C(=O)N[C@H](C(=O)N[C@@H](CCCCN)C(=O)NCC(=O)N[C@@H](CCCNC(=N)N)C(N)=O)C(C)C` [GLP-1, Glucagon-like peptide 1], for which the “share of the kidneys in the degradation of intact GLP-1” value in data set [1] was 10–20%. Besides, where the note is “dog, in vivo, iv”, the clearance is 38 ± 5 mL/min/kg.
Take `N#C[C@@H]1CCCN1C(=O)CNC12CC3CC(CC(O)(C3)C1)C2` [Vildagliptin]: the tolerability entry in data set [2] was “well tolerated”. Moreover, the “Free fatty acid and glycerol levels lower than in control” value in data set [3] (basal period, vildagliptin-treated group) is recorded as approximately 25%. In data set [3] (experimental period 60 min), the “Net hepatic alanine uptake” value was determined as 1.8 ± 0.2 µmol/kg/min, the “Net hepatic glycerol uptake” value was determined as 0.5 ± 0.2 µmol/kg/min and the “Plasma free fatty acid level” value was found to be 111 ± 23 µmol/L. In addition, in data set [3] (experimental period 120 min), the “Net hepatic alanine uptake” value is 2.0 ± 0.5 µmol/kg/min, the “Net hepatic glycerol uptake” value was 0.5 ± 0.1 µmol/kg/min and the “Plasma free fatty acid level” value is 88 ± 26 µmol/L. Also, in data set [3] (experimental period 180 min), the “Net hepatic alanine uptake” value is 2.2 ± 0.2 µmol/kg/min, the “Net hepatic glycerol uptake” value worked out at 0.4 ± 0.2 µmol/kg/min and the “Plasma free fatty acid level” value is 71 ± 25 µmol/L. Besides, in data set [3] (experimental period 210 min), the “Net hepatic alanine uptake” value was 2.4 ± 0.2 µmol/kg/min, the “Net hepatic glycerol uptake” value came to 0.5 ± 0.2 µmol/kg/min and the “Plasma free fatty acid level” value turned out to be 82 ± 31 µmol/L. In data set [3] (experimental period 240 min), the “Net hepatic alanine uptake” value came out at 2.5 ± 0.3 µmol/kg/min, the “Net hepatic glycerol uptake” value stood at 0.3 ± 0.1 µmol/kg/min and the “Plasma free fatty acid level” value came out at 66 ± 15 µmol/L. For the same molecule, the “increase of nonhepatic glucose uptake from basal” value in data set [4] (basal period to last 3 h, not significant vs control) stood at 8.1 ± 1.4 mg/kg/min. In data set [4] (setting [7]), the “Nonhepatic glucose uptake (non-HGU)” value was 2.3 ± 0.3 mg/kg/min and the “net hepatic glucose balance (positive = output)” value amounted to 2.1 ± 0.2 mg/kg/min. The “Nonhepatic glucose uptake (non-HGU)” value in data set [4] (last 3 h, mean ± SEM, n = 6) amounted to 10.4 ± 1.4 mg/kg/min. Moreover, the “net hepatic glucose fractional extraction” value in data set [4] (last 3 h, mean ± SEM, n = 6, P < 0.05) is listed as 0.06 ± 0.01. The “increase in the rise in active GLP-1 after meals” value in data set [5] is recorded as “twofold or greater increase”. In addition, the “increase in arterial and portal vein GLP-1 concentrations” value (vildagliptin 1 mg/kg oral vs control) is reported as 70%. In data set [6] (basal period to last 3 h), the “increase of arterial plasma C-peptide” value was 3.6 fold. In addition, in data set [6] (setting [7]), the “Hepatic sinusoidal plasma glucagon level” value came to 43 ± 3 pg/mL, the “arterial plasma C-peptide level” value came to 0.39 ± 0.04 ng/mL, the arterial plasma insulin stood at 6 ± 1 μU/ml and the “hepatic sinusoidal plasma insulin” value was 17 ± 3 μU/ml. Further, the “Hepatic sinusoidal plasma glucagon level” value in data set [6] (experimental period, mean ± SEM, n = 6) was 23 ± 4 pg/mL. In addition, in data set [6], the “increase of arterial plasma insulin from basal period to last 3 h” value was 5.5 fold and the “increase of hepatic sinusoidal plasma insulin from basal period to last 3 h” value amounted to 5.4 fold. Moreover, the “average hepatic insulin level greater than in the control group” value in data set [6] (not statistically significant) was found to be 15 μU/ml.
